Columns and labels:
Format in all cases: in vivo
[1] = tested on: barnyardgrass (Echinochloa crus-galli); assay: Test C postemergence, visual plant response rating
Method in brief: (§1)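 Seeds sown in a loam–sand blend got a directed preemergence soil spray; postemergence plants (2–10 cm, one- to two-leaf stage) were sprayed with compound in a non-phytotoxic solvent plus surfactant. Injury was scored visually against untreated controls after about 10 d in a greenhouse on a 0–100 scale (100 = complete control).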

kochia (Bassia scoparia) [2] = assay: Test C postemergence, visual plant response rating
Method in brief: as §1

[3] = tested on: wheat (Triticum aestivum); assay: Test C postemergence, visual plant response rating
Method in brief: as §1

[4] = tested on: ragweed (common ragweed, Ambrosia artemisiifolia); assay: Test C postemergence, visual plant response rating
Method in brief: as §1

[5] = tested on: pigweed (Amaranthus retroflexus); assay: Test C postemergence, visual plant response rating
Method in brief: as §1

[6] = tested on: foxtail, giant (giant foxtail, Setaria faberi); assay: Test C postemergence, visual plant response rating
Method in brief: as §1

[7] = tested on: Italian ryegrass (Lolium mutiflorum); assay: Test C postemergence, visual plant response rating
Method in brief: as §1

[8] = tested on: blackgrass (Alopecurus myosuroides); assay: Test C postemergence, visual plant response rating
Method in brief: as §1

[9] = tested on: galium (catchweed bedstraw, Galium aparine); assay: Test C postemergence, visual plant response rating
Method in brief: as §1

corn (Zea mays) = assay: Test C postemergence, visual plant response rating
Method in brief: as §1

[10] = tested on: barnyardgrass (Echinochloa crus-galli); assay: Test C preemergence, visual plant response rating
Method in brief: as §1

kochia (Bassia scoparia) [11] = assay: Test C preemergence, visual plant response rating
Method in brief: as §1

[12] = tested on: ragweed (common ragweed, Ambrosia artemisiifolia); assay: Test C preemergence, visual plant response rating
Method in brief: as §1

[13] = tested on: pigweed (Amaranthus retroflexus); assay: Test C preemergence, visual plant response rating
Method in brief: as §1

[14] = tested on: foxtail, giant (giant foxtail, Setaria faberi); assay: Test C preemergence, visual plant response rating
Method in brief: as §1

[15] = tested on: Italian ryegrass (Lolium mutiflorum); assay: Test C preemergence, visual plant response rating
Method in brief: as §1

[16] = tested on: barnyardgrass (Echinochloa crus-galli); assay: Test D flooded paddy test, visual plant response rating; conditions: 250 g ai/ha, scale 0 to 100 (0 no effect, 100 complete control), 13 to 15 d
Method in brief: (§2)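 Greenhouse paddy assay scored on a 0–100 visual scale after 13 to 15 d, where 100 means complete control and a dash marks no result; dosing was into 3 cm floodwater over 2-leaf plants.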

[17] = tested on: sedge umbrella (small-flower umbrella sedge, Cyperus difformis); assay: as above; conditions: 250 g ai/ha, scale 0 to 100 (0 no effect, 100 complete control), 13 to 15 d
Method in brief: as §2

[18] = tested on: duck salad (Heteranthera limosa); assay: as above; conditions: 250 g ai/ha, scale 0 to 100 (0 no effect, 100 complete control), 13 to 15 d
Method in brief: as §2

rice (Oryza sativa) = assay: as above; conditions: 250 g ai/ha, scale 0 to 100 (0 no effect, 100 complete control), 13 to 15 d
Method in brief: as §2

[19] = Test C, postemergence, 125 g ai/ha
[20] = Test C, 31 g ai/ha, 0 is no effect, 100 is complete control
[21] = Test C, 125 g ai/ha, 0 is no effect, 100 is complete control

CON=C(c1cc(Cl)cc(Cl)c1Cl)c1c(O)c(C)nn(C)c1=O [Compound 213]
80: Barnyardgrass plant response rating (0 to 100 scale) ([1]; Postemergence, 31 g ai/ha) | Barnyardgrass plant response rating (0 to 100 scale) [1, 19] | Ragweed plant response rating (0 to 100 scale) [4, 19] | Pigweed plant response rating (0 to 100 scale) ([5]; Postemergence, 31 g ai/ha) | Foxtail, Giant plant response rating (0 to 100 scale) [6, 19] | Blackgrass plant response rating (0 to 100 scale) [8, 19] | Kochia plant response rating (0 to 100 scale) (kochia (Bassia scoparia) [11]; [21]) | Foxtail, Giant plant response rating (0 to 100 scale) [14, 21]
70: Kochia plant response rating (0 to 100 scale) (kochia (Bassia scoparia) [2]; [19]) | Ragweed plant response rating (0 to 100 scale) ([4]; Postemergence, 31 g ai/ha) | Foxtail, Giant plant response rating (0 to 100 scale) ([6]; Postemergence, 31 g ai/ha) | Barnyardgrass plant response rating (0 to 100 scale) [10, 20] | Ragweed plant response rating (0 to 100 scale) [12, 20] | Ryegrass, Italian plant response rating (0 to 100 scale) [15, 20] | Plant response rating, Barnyardgrass (Flood) [16] | Plant response rating, Ducksalad (Flood) [18]
20: Corn plant response rating (0 to 100 scale) (corn (Zea mays); Postemergence, 31 g ai/ha) | Kochia plant response rating (0 to 100 scale) (kochia (Bassia scoparia) [11]; [20])
90: Pigweed plant response rating (0 to 100 scale) [5, 19] | Ryegrass, Italian plant response rating (0 to 100 scale) ([7]; Postemergence, 31 g ai/ha) | Galium plant response rating (0 to 100 scale) ([9]; Postemergence, 31 g ai/ha) | Galium plant response rating (0 to 100 scale) [9, 19] | Barnyardgrass plant response rating (0 to 100 scale) [10, 21] | Plant response rating, Sedge, Umbrella (Flood) [17]
100: Ryegrass, Italian plant response rating (0 to 100 scale) [7, 19] | Ragweed plant response rating (0 to 100 scale) [12, 21] | Pigweed plant response rating (0 to 100 scale) [13, 20] | Pigweed plant response rating (0 to 100 scale) [13, 21] | Ryegrass, Italian plant response rating (0 to 100 scale) [15, 21]
40: Wheat plant response rating (0 to 100 scale) ([3]; Postemergence, 31 g ai/ha) | Corn plant response rating (0 to 100 scale) (corn (Zea mays); [19]) | Plant response rating, Rice (Flood) (rice (Oryza sativa))
30: Blackgrass plant response rating (0 to 100 scale) ([8]; Postemergence, 31 g ai/ha)
60: Kochia plant response rating (0 to 100 scale) (kochia (Bassia scoparia) [2]; Postemergence, 31 g ai/ha) | Wheat plant response rating (0 to 100 scale) [3, 19] | Foxtail, Giant plant response rating (0 to 100 scale) [14, 20]

CO/N=C(/c1cc(F)cc(F)c1C)c1c(O)c(C)nn(C)c1=O [Compound 305]
30: Barnyardgrass plant response rating (0 to 100 scale) [1, 19] | Ragweed plant response rating (0 to 100 scale) ([4]; Postemergence, 31 g ai/ha) | Foxtail, Giant plant response rating (0 to 100 scale) ([6]; Postemergence, 31 g ai/ha) | Kochia plant response rating (0 to 100 scale) (kochia (Bassia scoparia) [11]; 125 g ai/ha) | Pigweed plant response rating (0 to 100 scale) [13, 20] | Foxtail, Giant plant response rating (0 to 100 scale) ([14]; 125 g ai/ha) | Ryegrass, Italian plant response rating (0 to 100 scale) ([15]; 125 g ai/ha)
10: Ryegrass, Italian plant response rating (0 to 100 scale) ([7]; Postemergence, 31 g ai/ha) | Blackgrass plant response rating (0 to 100 scale) ([8]; Postemergence, 31 g ai/ha) | Barnyardgrass plant response rating (0 to 100 scale) [10, 20] | Kochia plant response rating (0 to 100 scale) (kochia (Bassia scoparia) [11]; [20]) | Foxtail, Giant plant response rating (0 to 100 scale) [14, 20]
20: Barnyardgrass plant response rating (0 to 100 scale) ([1]; Postemergence, 31 g ai/ha) | Blackgrass plant response rating (0 to 100 scale) [8, 19] | Barnyardgrass plant response rating (0 to 100 scale) ([10]; 125 g ai/ha) | Ragweed plant response rating (0 to 100 scale) ([12]; 125 g ai/ha) | Ragweed plant response rating (0 to 100 scale) [12, 20]
60: Pigweed plant response rating (0 to 100 scale) ([5]; Postemergence, 31 g ai/ha)
80: Ryegrass, Italian plant response rating (0 to 100 scale) [7, 19]
90: Pigweed plant response rating (0 to 100 scale) [5, 19]
0: Wheat plant response rating (0 to 100 scale) ([3]; Postemergence, 31 g ai/ha) | Wheat plant response rating (0 to 100 scale) [3, 19] | Corn plant response rating (0 to 100 scale) (corn (Zea mays); Postemergence, 31 g ai/ha) | Corn plant response rating (0 to 100 scale) (corn (Zea mays); [19]) | Ryegrass, Italian plant response rating (0 to 100 scale) [15, 20] | Plant response rating, Barnyardgrass (Flood) [16] | Plant response rating, Sedge, Umbrella (Flood) [17] | Plant response rating, Ducksalad (Flood) [18] | Plant response rating, Rice (Flood) (rice (Oryza sativa))
50: Kochia plant response rating (0 to 100 scale) (kochia (Bassia scoparia) [2]; Postemergence, 31 g ai/ha) | Foxtail, Giant plant response rating (0 to 100 scale) [6, 19]
70: Kochia plant response rating (0 to 100 scale) (kochia (Bassia scoparia) [2]; [19]) | Ragweed plant response rating (0 to 100 scale) [4, 19] | Galium plant response rating (0 to 100 scale) ([9]; Postemergence, 31 g ai/ha) | Galium plant response rating (0 to 100 scale) [9, 19] | Pigweed plant response rating (0 to 100 scale) ([13]; 125 g ai/ha)

CO/N=C(/c1cccc(Br)c1)c1c(O)c(C)nn(C)c1=O [Compound 234]
0: Wheat plant response rating (0 to 100 scale) ([3]; Postemergence, 31 g ai/ha) | Wheat plant response rating (0 to 100 scale) [3, 19] | Blackgrass plant response rating (0 to 100 scale) [8, 19] | Corn plant response rating (0 to 100 scale) (corn (Zea mays); Postemergence, 31 g ai/ha) | Corn plant response rating (0 to 100 scale) (corn (Zea mays); [19]) | Barnyardgrass plant response rating (0 to 100 scale) [10, 20] | Barnyardgrass plant response rating (0 to 100 scale) [10, 21] | Kochia plant response rating (0 to 100 scale) (kochia (Bassia scoparia) [11]; [20]) | Kochia plant response rating (0 to 100 scale) (kochia (Bassia scoparia) [11]; [21]) | Pigweed plant response rating (0 to 100 scale) [13, 20] | Pigweed plant response rating (0 to 100 scale) [13, 21] | Foxtail, Giant plant response rating (0 to 100 scale) [14, 20] | Plant response rating, Barnyardgrass (Flood) [16] | Plant response rating, Sedge, Umbrella (Flood) [17] | Plant response rating, Ducksalad (Flood) [18] | Plant response rating, Rice (Flood) (rice (Oryza sativa))
90: Galium plant response rating (0 to 100 scale) [9, 19] | Ryegrass, Italian plant response rating (0 to 100 scale) [15, 21]
20: Foxtail, Giant plant response rating (0 to 100 scale) [14, 21]
30: Barnyardgrass plant response rating (0 to 100 scale) [1, 19] | Kochia plant response rating (0 to 100 scale) (kochia (Bassia scoparia) [2]; Postemergence, 31 g ai/ha) | Pigweed plant response rating (0 to 100 scale) [5, 19] | Foxtail, Giant plant response rating (0 to 100 scale) [6, 19]
50: Ryegrass, Italian plant response rating (0 to 100 scale) ([7]; Postemergence, 31 g ai/ha)
40: Ragweed plant response rating (0 to 100 scale) ([4]; Postemergence, 31 g ai/ha) | Ragweed plant response rating (0 to 100 scale) [12, 21] | Ryegrass, Italian plant response rating (0 to 100 scale) [15, 20]
80: Ragweed plant response rating (0 to 100 scale) [4, 19] | Galium plant response rating (0 to 100 scale) ([9]; Postemergence, 31 g ai/ha)
10: Barnyardgrass plant response rating (0 to 100 scale) ([1]; Postemergence, 31 g ai/ha) | Pigweed plant response rating (0 to 100 scale) ([5]; Postemergence, 31 g ai/ha) | Foxtail, Giant plant response rating (0 to 100 scale) ([6]; Postemergence, 31 g ai/ha) | Blackgrass plant response rating (0 to 100 scale) ([8]; Postemergence, 31 g ai/ha) | Ragweed plant response rating (0 to 100 scale) [12, 20]
70: Kochia plant response rating (0 to 100 scale) (kochia (Bassia scoparia) [2]; [19]) | Ryegrass, Italian plant response rating (0 to 100 scale) [7, 19]

From patent publication US20210045385A1, “PYRIDAZINONE-SUBSTITUTED KETOXIMES AS HERBICIDES” (FMC Corporation, priority 2018, published 2021)
